Among the data in PubChem BioAssay AID602210 (Sanford-Burnham Center for Chemical Genomics, 2012) are IC50 values, retold here.

Each structure is given as a SMILES string. Calls of active or inactive are those of the source. The rule behind the calls is not given here.

The assay can be described thus: H9c2 cardiomyoblast viability modulators under 2-DG – cell-based, ATPlite luminescence, rat, set 2, myocardial damage modulator project, dose response (AID 602210). The following applies: H9c2 rat cardiomyoblasts, 2-deoxyglucose-induced death, 2 h. For orientation: Cellular ATP, detected with luciferase, serves as a proxy for viable cell number.
Regarding `COC(=O)c1cc2c(-c3ccccc3)cc3ccccn3c-2c1C(=O)OC`, the IC50 (commonly the concentration needed to halve the response being measured) is 12.7 µM (inactive). For `CCOC(=O)C1CCCN(C(=O)CCC(=O)Nc2ccc3nc(N4CCOCC4)cc(C)c3c2)C1` (configuration not stated) the value was 38.8 µM (inactive); for `CC(OC(=O)c1cc(-c2cccnc2)nc2ccccc12)C(=O)Nc1ccc2ccccc2c1` (configuration not stated), 14.3 µM (inactive); for `CCOc1cccc(Nc2cc3n(c(=O)n2)CCc2cc(OC)c(OC)cc2-3)c1`, 28 µM (inactive).

For `COc1ccc(/C=C/C(=O)c2ccccc2O)cc1CN1CCOCC1`, the IC50 is 25.7 µM (inactive).

On to `COc1ccc(-c2nn3c(-c4ccco4)nnc3s2)cc1OC`, for which the IC50 is 28.2 µM (inactive). For `C=CC[C@@H](CC(=O)NCCO)C(=O)NC[C@H](OC(=O)[C@@H](CC=C)Cc1ccc(F)cc1)c1ccccc1` the value was 11.9 µM (inactive).

Consider `Fc1ccc(CSc2ccc3nnc(-c4cccnc4)n3n2)cc1`, for which the IC50 was 44.5 µM (inactive). Consider `COc1cc(/C=C/c2nc3ccccc3c(=O)n2-c2ccc(O)cc2)ccc1O`, for which the IC50 was > 79 µM (inactive). For `COc1cc(/C=N/NC(=O)c2ccncc2)ccc1OC(=O)c1ccccc1Cl` the value was 15.8 µM (inactive); for `CCn1cc(C(=O)Nc2cccc(NC(C)=O)c2)c2cc(OC)c(OC)cc2c1=O`, 39.1 µM (inactive).

`Cc1cc(C)c2c(N)c(C(=O)N/N=C/c3cccnc3)sc2n1`: the IC50 was 25.5 µM (inactive). With `CC(C)(C)OC(=O)NCC12C=CC(O1)C1C(=O)N(Cc3ccccc3)C(=O)C12` (configuration not stated) the figure was 21.5 µM (inactive). With `COc1cc(-c2cc(NC(C)=O)c3ncc(-c4ccc(C(C)=O)cc4)n3c2)cc(OC)c1OC` the figure was 7.42 µM; with `COc1cccc(-c2cnc3c(NC=O)cc(-c4cc(C)c(O)c(C)c4)cn23)c1`, 18.9 µM (inactive); with `O=C(NCc1ccco1)c1cc(-c2cccnc2)nc2ccc(Cl)cc12`, > 79 µM (inactive). `Cc1nn(-c2ccccc2)c(N2CCCC2)c1/C=N/NC(=O)c1cc(-c2ccccn2)nc2ccccc12`: the IC50 was 12.6 µM (inactive). With `C[C@H](CO)N1C[C@H](C)[C@@H](CN(C)C(=O)Nc2ccc3c(c2)OCO3)Oc2c(NC(=O)Nc3ccc(C(F)(F)F)cc3)cccc2C1=O` the figure was > 79 µM (inactive). As for `COc1cc(CN2C[C@@H](CO)O[C@@H](n3cnc4c(Nc5ccccc5)ncnc43)C2)cc(OC)c1OC`, the IC50 is 17.5 µM (inactive). For `COc1ccc(/C=N/NC(=O)c2ccc(COc3cccc4cccnc34)cc2)cc1OC` the value was 12.1 µM (inactive). For `COc1ccc2o/c(=N/NC(=O)c3cccs3)c(C(N)=O)cc2c1` the value was 21.5 µM (inactive); for `O=C(/C=C\c1cn(-c2ccccc2)nc1-c1ccc2c(c1)OCCO2)N1CCOCC1`, > 79 µM (inactive); for `COc1ccc(C=CC(=O)c2ccc3cc(OC)c(OC)cc3c2)cc1OC`, 11.7 µM (inactive). With `CC(C)C(=O)N1CCN(c2ccc(NC(=O)COc3ccccc3[N+](=O)[O-])cc2)CC1` the figure was 5.55 µM; with `COc1cc(C(=O)Nc2ccc(NC(=O)c3cccc(Cl)c3)nc2)cc(OC)c1OC`, > 79 µM (inactive); with `CCC(=O)N1CCN(c2ccccc2NC(=O)c2ccc(-c3cccc([N+](=O)[O-])c3)o2)CC1`, > 79 µM (inactive). In the case of `COc1ccc(-c2cc(-c3nnc(COC(=O)C4CC4)o3)c3ccccc3n2)cc1OC`, the IC50 was 8.35 µM. With `O=S(=O)(c1ccccc1)N1CCN(c2nc(-c3cccnc3)nc3ccccc23)CC1` the figure was 12 µM (inactive).

For the compound `COc1ccc(-c2cc3nc(C)cc(N4CCN(C(=O)c5ccoc5)CC4)n3n2)cc1`, the IC50 was > 79 µM (inactive). Consider `COc1ccc(-c2cc(-c3ccc(O)cc3)nc(N)c2C#N)cc1OC`, for which the IC50 is > 79 µM (inactive). For `CC1Nc2ncnc(N3CCN(c4ccccc4)CC3)c2N(Cc2ccc(Br)cc2)C1=O` (configuration not stated) the value was > 79 µM (inactive). Consider `CC(=NO)C1CCC2C3CCC4CC(=NO)CCC4(C)C3C(C)(O)CC12C` (configuration not stated), for which the IC50 was 22 µM (inactive). Take `Cc1cccc(NC(=O)c2cc(-c3ccco3)nc3ccccc23)n1`: the IC50 was 12.2 µM (inactive).

For the compound `CCN(CC)C(=O)c1ccc2c3c(cccc13)C(=O)N(CCc1ccc(OC)c(OC)c1)C2=O`, the IC50 is 25 µM (inactive). For `O=C(c1cc(=O)[nH]c2ccccc12)N1CCN(S(=O)(=O)c2ccc(Cl)cc2)CC1` the value was 7.15 µM; for `CCOc1ccccc1N1CC(O)=C(c2nc3ccccc3s2)C1=N`, 13.8 µM (inactive). With `Nc1c(C(=O)N/N=C/c2cccnc2)oc2nc(-c3ccco3)cc(-c3ccco3)c12` the figure was 1.63 µM; with `CCOC(=O)C1CCN(c2cc3c(cc2NC(=O)c2ccccc2Cl)n(C)c(=O)n3C)CC1`, 15.2 µM (inactive). For `CCOC(=O)N1CCc2c(sc(NC(=O)CN3CCOCC3)c2C(=O)Nc2ccccc2)C1` the value was > 79 µM (inactive); for `COc1cc(-c2cc(NC=O)c3ncc(-c4ccc(C(C)=O)cc4)n3c2)cc(OC)c1OC`, 6.7 µM; for `CC(C)(C)C(=O)Nc1cccc(-c2nnc(-c3cccc(NC(=O)C(C)(C)C)c3)o2)c1`, 10.7 µM (inactive).

Take `CCC(=O)Oc1cccc(C(=O)Nc2ccc(-c3nnc(-c4ccco4)o3)cc2)c1`: the IC50 was > 79 µM (inactive). With `Cc1cc(N)n(-c2nc(-c3cccnc3)nc3ccccc23)n1` the figure was 26.1 µM (inactive); with `Cc1[nH]c2ccccc2c1/C=N/NC(=O)c1cc(-c2ccccc2)n[nH]1`, 8.98 µM; with `NC(=O)c1cccc(-c2coc3c(C(=O)NCCc4ccccc4)cccc23)c1`, 13.3 µM (inactive). For `CC(=O)Nc1cc(C)nn1-c1nc2ccccc2s1` the value was > 79 µM (inactive); for `Nc1cc2[nH]c(=O)c3ccccc3c2cc1[N+](=O)[O-]`, 24.4 µM (inactive); for `CCCNC(=O)c1c(N)n(-c2cccc(OC)c2)c2nc3ccccc3nc12`, 14.9 µM (inactive). With `CCN(C[C@H]1N[C@@](C)(C(=O)OC)[C@H]2C(=O)N(Cc3ccccc3)C(=O)[C@@H]12)C(=O)c1ccc(C(C)(C)C)cc1` the figure was 17.9 µM (inactive); with `CCCN1C(=O)c2cc(C(=O)Nc3cccc(C(C)=O)c3)ccc2C1Nc1cccc(C(C)=O)c1` (configuration not stated), 13.7 µM (inactive); with `O=C(CN1C(=O)C2C3C=CC(C3)C2C1=O)Nc1nc(-c2ccccn2)cs1` (configuration not stated), 24.7 µM (inactive).

Consider `CCOC(=O)N1CCN(C(=O)CSc2nc3c(cnn3-c3ccc(C)cc3)c(=O)[nH]2)CC1`, for which the IC50 is > 79 µM (inactive).

On to `Cn1c(=O)n(CCc2ccccc2)c(=O)c2c1nc1n2CCN1Cc1ccco1`, for which the IC50 is 19.3 µM (inactive). With `COc1ccc(N(CC(=O)N/N=C/c2cccs2)S(=O)(=O)c2ccc(OC)c(OC)c2)cc1` the figure was 28 µM (inactive); with `COc1ccc(/C=N/NC(=O)c2cc(-c3ccc4c(c3)OCO4)n[nH]2)cc1OC`, 9.02 µM. For `O=C(C(=O)N(Cc1ccccc1)Cc1ccccc1)c1c(-c2ccccc2)[nH]c2ccccc12` the value was 1.88 µM; for `COC(=O)c1cc(OC)c(OC)cc1NC(=O)c1ccc(C)o1`, 23.4 µM (inactive).
